Assay results taken from ChEMBL document CHEMBL5291721, “A preclinical secondary pharmacology resource illuminates target-adverse drug reaction associations of marketed drugs” (Nat Commun, 2023).
One block for each compound: values may come before it.

Legend:
[1] = target: T1, 5-hydroxytryptamine receptor 1A (Homo sapiens, UniProt P08908); type: functional, cell-based
T1 sequence (P08908 whole entry): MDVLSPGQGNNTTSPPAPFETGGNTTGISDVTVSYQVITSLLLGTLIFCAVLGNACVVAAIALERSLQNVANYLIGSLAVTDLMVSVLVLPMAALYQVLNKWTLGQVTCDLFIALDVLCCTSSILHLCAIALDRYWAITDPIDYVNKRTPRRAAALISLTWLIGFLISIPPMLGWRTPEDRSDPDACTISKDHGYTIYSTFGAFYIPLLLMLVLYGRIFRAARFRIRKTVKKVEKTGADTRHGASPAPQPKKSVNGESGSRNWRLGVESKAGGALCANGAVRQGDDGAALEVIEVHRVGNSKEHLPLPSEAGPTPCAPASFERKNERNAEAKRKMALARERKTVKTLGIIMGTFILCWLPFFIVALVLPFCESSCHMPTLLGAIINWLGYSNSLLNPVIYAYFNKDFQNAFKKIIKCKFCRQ

Progesterone receptor = target: T2, Progesterone receptor (Homo sapiens, UniProt P06401); type: functional
T2 sequence (P06401 whole entry): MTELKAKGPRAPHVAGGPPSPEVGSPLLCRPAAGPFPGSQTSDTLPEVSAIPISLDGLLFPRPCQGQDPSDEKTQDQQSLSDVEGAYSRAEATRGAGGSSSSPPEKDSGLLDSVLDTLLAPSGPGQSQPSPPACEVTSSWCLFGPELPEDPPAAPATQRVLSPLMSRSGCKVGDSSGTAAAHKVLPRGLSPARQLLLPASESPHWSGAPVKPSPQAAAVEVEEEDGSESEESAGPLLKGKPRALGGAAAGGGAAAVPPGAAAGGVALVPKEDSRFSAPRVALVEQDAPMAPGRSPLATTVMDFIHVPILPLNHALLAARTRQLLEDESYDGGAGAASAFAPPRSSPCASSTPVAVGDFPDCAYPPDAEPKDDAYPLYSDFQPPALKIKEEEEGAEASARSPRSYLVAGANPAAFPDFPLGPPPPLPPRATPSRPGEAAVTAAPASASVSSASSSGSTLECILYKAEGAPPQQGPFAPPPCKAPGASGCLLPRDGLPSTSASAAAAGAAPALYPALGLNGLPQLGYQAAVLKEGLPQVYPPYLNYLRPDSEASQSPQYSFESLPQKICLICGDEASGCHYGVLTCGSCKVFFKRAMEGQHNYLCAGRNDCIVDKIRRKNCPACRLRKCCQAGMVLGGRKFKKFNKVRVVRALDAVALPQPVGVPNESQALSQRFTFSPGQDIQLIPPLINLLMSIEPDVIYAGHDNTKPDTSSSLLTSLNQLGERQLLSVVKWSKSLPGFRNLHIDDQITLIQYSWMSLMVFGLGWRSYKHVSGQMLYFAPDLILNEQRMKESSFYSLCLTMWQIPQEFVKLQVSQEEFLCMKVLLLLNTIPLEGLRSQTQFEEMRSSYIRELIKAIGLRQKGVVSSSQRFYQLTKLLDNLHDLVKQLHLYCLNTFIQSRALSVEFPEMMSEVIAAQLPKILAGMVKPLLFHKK

Acetylcholinesterase = Acetylcholinesterase (Homo sapiens, UniProt P22303); type: functional
[2] = target: T3, Alpha-2A adrenergic receptor (Homo sapiens, UniProt P08913)
T3 sequence (P08913 whole entry): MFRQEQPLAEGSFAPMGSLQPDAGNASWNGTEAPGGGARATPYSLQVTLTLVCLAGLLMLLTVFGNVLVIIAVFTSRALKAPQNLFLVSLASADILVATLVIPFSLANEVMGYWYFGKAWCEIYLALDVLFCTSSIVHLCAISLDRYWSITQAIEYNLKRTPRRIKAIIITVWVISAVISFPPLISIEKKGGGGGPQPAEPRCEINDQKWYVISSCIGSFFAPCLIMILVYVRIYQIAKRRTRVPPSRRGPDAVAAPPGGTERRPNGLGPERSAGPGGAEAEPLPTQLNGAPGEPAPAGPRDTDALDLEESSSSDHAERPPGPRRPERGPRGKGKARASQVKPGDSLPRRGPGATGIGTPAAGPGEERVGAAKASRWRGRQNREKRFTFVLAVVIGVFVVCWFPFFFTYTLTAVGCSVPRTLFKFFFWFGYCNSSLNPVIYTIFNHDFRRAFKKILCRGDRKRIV

D(1A) dopamine receptor = D(1A) dopamine receptor (Homo sapiens, UniProt P21728)
D(3) dopamine receptor = D(3) dopamine receptor (Homo sapiens, UniProt P35462)
Prothrombin = Prothrombin (Homo sapiens, UniProt P00734); type: functional
[3] = target: T4, Amine oxidase [flavin-containing] A (Homo sapiens, UniProt P21397); type: functional
T4 sequence (P21397 whole entry): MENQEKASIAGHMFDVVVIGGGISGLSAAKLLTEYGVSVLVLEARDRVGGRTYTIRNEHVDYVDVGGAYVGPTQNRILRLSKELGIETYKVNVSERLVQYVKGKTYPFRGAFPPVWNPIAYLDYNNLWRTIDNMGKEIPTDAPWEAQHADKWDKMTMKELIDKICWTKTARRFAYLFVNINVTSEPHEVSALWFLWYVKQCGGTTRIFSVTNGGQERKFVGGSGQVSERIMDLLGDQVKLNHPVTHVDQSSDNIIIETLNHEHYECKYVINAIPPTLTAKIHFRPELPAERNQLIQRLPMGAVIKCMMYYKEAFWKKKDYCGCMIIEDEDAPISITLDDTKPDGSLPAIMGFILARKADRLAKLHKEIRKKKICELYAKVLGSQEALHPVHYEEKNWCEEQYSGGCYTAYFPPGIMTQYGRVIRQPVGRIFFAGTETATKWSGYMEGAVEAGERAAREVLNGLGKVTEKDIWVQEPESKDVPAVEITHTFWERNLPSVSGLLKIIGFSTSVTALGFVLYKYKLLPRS

[4] = target: 3',5'-cyclic-AMP phosphodiesterase 4A (Homo sapiens, UniProt P27815); type: functional
[5] = target: Prostaglandin G/H synthase 1 (Homo sapiens, UniProt P23219); type: functional
[6] = target: Sodium-dependent noradrenaline transporter (Homo sapiens, UniProt P23975)
[7] = target: Sodium-dependent dopamine transporter (Homo sapiens, UniProt Q01959)
Further: assay procedure not described here.

Chain of 3',5'-cyclic-AMP phosphodiesterase 4A (P27815 whole entry): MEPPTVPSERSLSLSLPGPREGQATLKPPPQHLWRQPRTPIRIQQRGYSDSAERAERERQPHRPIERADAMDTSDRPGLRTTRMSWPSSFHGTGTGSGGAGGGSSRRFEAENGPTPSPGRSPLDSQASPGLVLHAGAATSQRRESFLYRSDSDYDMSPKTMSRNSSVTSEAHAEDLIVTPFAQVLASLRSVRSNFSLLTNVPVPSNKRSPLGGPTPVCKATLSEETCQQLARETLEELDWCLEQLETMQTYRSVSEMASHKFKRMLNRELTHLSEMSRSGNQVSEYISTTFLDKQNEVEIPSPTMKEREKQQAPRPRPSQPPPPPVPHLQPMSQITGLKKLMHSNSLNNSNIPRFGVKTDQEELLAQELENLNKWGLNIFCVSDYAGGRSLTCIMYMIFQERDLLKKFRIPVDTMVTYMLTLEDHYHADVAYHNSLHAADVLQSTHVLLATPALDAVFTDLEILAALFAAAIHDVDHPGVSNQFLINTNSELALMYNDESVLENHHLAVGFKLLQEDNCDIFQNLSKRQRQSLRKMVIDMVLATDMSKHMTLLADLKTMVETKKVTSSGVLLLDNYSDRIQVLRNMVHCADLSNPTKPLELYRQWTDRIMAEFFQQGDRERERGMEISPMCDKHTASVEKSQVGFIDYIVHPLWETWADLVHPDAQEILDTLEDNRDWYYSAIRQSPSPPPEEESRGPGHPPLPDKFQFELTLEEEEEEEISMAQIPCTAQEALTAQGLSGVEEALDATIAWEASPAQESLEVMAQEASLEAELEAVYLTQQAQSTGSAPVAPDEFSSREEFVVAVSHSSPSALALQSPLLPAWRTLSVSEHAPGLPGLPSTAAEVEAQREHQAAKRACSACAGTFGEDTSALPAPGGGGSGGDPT
Chain of Acetylcholinesterase (P22303 whole entry): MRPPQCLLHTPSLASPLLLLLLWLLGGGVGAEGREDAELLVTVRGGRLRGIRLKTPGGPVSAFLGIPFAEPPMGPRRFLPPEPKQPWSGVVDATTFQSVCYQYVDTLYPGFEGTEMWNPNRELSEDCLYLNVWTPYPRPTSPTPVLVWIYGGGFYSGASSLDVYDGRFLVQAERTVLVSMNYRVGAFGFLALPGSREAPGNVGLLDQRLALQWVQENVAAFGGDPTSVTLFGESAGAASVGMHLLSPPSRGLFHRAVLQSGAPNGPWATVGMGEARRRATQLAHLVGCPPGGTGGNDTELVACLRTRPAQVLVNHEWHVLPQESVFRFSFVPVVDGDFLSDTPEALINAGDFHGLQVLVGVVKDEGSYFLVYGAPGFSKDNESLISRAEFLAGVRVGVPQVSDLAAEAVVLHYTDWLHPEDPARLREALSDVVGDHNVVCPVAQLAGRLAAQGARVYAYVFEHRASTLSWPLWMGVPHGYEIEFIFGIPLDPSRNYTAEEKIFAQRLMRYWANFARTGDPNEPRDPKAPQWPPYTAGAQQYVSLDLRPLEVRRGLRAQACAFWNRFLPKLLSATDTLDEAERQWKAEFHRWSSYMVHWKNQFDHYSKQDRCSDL
Chain of Prostaglandin G/H synthase 1 (P23219 whole entry): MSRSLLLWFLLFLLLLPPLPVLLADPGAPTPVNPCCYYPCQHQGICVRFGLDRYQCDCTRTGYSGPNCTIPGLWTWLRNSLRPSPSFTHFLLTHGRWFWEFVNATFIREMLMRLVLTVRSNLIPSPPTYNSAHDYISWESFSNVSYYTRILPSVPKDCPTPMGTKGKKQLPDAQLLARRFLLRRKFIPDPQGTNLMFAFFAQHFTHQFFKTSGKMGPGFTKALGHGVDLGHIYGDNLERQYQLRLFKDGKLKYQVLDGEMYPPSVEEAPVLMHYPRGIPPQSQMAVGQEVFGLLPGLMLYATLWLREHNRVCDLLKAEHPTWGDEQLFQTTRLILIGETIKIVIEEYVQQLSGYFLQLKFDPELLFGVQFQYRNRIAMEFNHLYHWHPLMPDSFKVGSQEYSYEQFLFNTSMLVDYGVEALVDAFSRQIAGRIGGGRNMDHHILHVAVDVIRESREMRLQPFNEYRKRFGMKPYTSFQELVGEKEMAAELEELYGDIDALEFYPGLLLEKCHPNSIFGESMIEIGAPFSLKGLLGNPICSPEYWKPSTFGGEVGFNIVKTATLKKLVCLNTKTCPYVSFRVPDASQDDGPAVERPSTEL
Chain of D(1A) dopamine receptor (P21728 whole entry): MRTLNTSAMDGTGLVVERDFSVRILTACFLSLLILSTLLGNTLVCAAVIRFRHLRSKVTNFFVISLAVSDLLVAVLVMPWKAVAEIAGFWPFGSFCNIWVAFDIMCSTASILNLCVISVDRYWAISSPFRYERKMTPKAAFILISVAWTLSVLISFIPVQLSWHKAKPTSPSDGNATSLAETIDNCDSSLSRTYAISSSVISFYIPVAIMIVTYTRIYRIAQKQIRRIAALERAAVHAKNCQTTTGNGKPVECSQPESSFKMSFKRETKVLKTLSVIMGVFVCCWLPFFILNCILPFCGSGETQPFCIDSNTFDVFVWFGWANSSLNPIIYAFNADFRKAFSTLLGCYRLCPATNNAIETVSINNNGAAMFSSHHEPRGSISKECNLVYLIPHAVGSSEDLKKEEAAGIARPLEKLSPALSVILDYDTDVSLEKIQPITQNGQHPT
Chain of Sodium-dependent dopamine transporter (Q01959 whole entry): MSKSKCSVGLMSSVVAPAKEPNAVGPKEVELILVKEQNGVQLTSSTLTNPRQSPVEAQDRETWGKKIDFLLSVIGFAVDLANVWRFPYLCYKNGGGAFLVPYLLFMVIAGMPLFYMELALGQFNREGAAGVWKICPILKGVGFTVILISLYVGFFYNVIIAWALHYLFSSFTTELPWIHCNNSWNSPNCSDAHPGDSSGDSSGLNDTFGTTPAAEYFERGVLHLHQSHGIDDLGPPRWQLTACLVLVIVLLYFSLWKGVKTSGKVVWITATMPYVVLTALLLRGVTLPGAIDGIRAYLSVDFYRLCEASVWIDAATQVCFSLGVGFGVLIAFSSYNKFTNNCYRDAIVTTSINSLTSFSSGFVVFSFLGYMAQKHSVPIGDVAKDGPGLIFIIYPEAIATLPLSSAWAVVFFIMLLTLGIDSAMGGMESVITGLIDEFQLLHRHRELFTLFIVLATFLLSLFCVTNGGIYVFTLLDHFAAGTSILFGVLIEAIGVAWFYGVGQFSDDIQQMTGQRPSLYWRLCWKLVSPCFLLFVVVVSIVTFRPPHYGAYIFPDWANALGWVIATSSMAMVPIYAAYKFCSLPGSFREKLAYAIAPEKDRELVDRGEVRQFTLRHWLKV
Chain of D(3) dopamine receptor (P35462 whole entry): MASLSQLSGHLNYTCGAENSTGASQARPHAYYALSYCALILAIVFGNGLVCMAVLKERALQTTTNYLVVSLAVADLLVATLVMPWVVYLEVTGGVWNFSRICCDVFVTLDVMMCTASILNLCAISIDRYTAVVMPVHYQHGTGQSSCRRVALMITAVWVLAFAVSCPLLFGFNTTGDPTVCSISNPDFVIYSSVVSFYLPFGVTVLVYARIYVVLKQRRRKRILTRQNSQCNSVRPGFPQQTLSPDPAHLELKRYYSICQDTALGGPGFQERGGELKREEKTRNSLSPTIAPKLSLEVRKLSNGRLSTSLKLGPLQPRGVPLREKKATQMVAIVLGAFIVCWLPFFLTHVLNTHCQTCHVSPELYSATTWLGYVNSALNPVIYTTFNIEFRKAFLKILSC
Chain of Sodium-dependent noradrenaline transporter (P23975 whole entry): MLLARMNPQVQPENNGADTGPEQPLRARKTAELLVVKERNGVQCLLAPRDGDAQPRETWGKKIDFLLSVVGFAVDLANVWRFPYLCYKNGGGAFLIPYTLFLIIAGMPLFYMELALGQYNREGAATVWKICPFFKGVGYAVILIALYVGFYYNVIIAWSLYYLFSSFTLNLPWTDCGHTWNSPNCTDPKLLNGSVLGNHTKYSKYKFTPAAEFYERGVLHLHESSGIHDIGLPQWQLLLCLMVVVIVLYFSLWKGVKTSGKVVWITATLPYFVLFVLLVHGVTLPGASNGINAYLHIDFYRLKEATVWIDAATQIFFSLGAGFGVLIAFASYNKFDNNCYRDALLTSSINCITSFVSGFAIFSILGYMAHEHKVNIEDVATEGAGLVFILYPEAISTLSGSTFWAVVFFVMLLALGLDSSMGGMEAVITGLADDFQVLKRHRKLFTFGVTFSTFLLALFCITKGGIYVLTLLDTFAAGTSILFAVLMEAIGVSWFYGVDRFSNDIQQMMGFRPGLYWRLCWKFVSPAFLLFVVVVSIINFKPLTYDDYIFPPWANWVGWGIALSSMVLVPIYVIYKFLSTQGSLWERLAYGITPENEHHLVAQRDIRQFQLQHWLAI

AC50 [1]: > 30 µM
AC50 (Progesterone receptor): > 30 µM
SMILES: CN(C)CC[C@@H](c1ccc(Cl)cc1)c1ccccn1 [DEXCHLORPHENIRAMINE]

AC50 [1]: > 30 µM
AC50 (Progesterone receptor): > 30 µM
SMILES: CC(S)C(=O)NCC(=O)O (configuration not stated) [TIOPRONIN]

SMILES: CCN1CCN(Cc2ccc(Nc3ncc(F)c(-c4cc(F)c5nc(C)n(C(C)C)c5c4)n3)nc2)CC1 [ABEMACICLIB]
AC50 [1]: > 30 µM
AC50 (Progesterone receptor): > 30 µM

SMILES: CCCC(CCC)C(=O)O [VALPROIC ACID]
AC50 (Acetylcholinesterase): > 30 µM
AC50 [2]: > 30 µM
AC50 (D(1A) dopamine receptor): > 30 µM
AC50 (D(3) dopamine receptor): > 30 µM
AC50 (Prothrombin): > 30 µM
AC50 [1]: > 10 µM
AC50 [3]: > 30 µM
AC50 [4]: > 30 µM
AC50 [5]: > 30 µM
AC50 [6]: > 30 µM
AC50 [7]: > 30 µM

AC50 [1]: > 10 µM
AC50 (Progesterone receptor): > 30 µM
SMILES: CC(C(=O)O)c1ccc2c(c1)[nH]c1ccc(Cl)cc12 (configuration not stated) [CARPROFEN]

AC50 [1]: > 30 µM
AC50 (Progesterone receptor): > 30 µM
SMILES: COc1ccc(CC2c3cc(OC)c(OC)cc3CC[N+]2(C)CCC(=O)OCCCCCOC(=O)CC[N+]2(C)CCc3cc(OC)c(OC)cc3C2Cc2ccc(OC)c(OC)c2)cc1OC (configuration not stated)

AC50 [1]: 0.04 µM
AC50 (Progesterone receptor): > 30 µM
SMILES: COc1ccccc1OCCNCC(O)COc1cccc2[nH]c3ccccc3c12 (configuration not stated) [CARVEDILOL]

AC50 (Progesterone receptor): > 30 µM
SMILES: CC(C)(C)NCC(O)c1cc(O)cc(O)c1 (configuration not stated) [TERBUTALINE]

AC50 [1]: > 10 µM
AC50 (Progesterone receptor): > 30 µM
SMILES: C[C@@H](Oc1cc(-c2cnn(C3CCNCC3)c2)cnc1N)c1c(Cl)ccc(F)c1Cl [CRIZOTINIB]

AC50 [1]: > 10 µM
AC50 (Progesterone receptor): > 10 µM
SMILES: O=C1CN(/N=C/c2ccc(-c3ccc([N+](=O)[O-])cc3)o2)C(O)=N1 [DANTROLENE]

SMILES: C[C@@H]1C[C@H]2[C@@H]3CCC4=CC(=O)C=C[C@]4(C)[C@@]3(Cl)[C@@H](O)C[C@]2(C)[C@@]1(OC(=O)c1ccco1)C(=O)CCl [MOMETASONE FUROATE]
AC50 (Acetylcholinesterase): > 30 µM
AC50 [2]: > 30 µM
AC50 (D(1A) dopamine receptor): > 30 µM
AC50 (D(3) dopamine receptor): > 30 µM
AC50 (Prothrombin): > 30 µM
AC50 [3]: > 30 µM
AC50 [4]: > 30 µM
AC50 [5]: 13.7 µM
AC50 [6]: > 30 µM
AC50 [7]: > 30 µM

AC50 [1]: > 30 µM
AC50 (Progesterone receptor): > 30 µM
SMILES: O=C1CCc2cc(OCCCCc3nnnn3C3CCCCC3)ccc2N1 [CILOSTAZOL]

SMILES: Cc1onc(-c2ccccc2)c1C(=O)N[C@@H]1C(=O)N2[C@@H]1SC(C)(C)[C@@H]2C(=O)O [OXACILLIN]
AC50 (Acetylcholinesterase): > 30 µM
AC50 [2]: > 30 µM
AC50 (D(1A) dopamine receptor): > 30 µM
AC50 (D(3) dopamine receptor): > 30 µM
AC50 (Prothrombin): > 30 µM
AC50 [3]: > 30 µM
AC50 [4]: > 30 µM
AC50 [5]: > 30 µM
AC50 [6]: > 30 µM
AC50 [7]: > 30 µM

AC50 [1]: > 30 µM
AC50 (Progesterone receptor): > 30 µM
SMILES: C[C@@H](NCCCc1cccc(C(F)(F)F)c1)c1cccc2ccccc12
